Data set [1] in a line: Microscopy scoring of spontaneously and US activated bubbles. Format: physicochemical. Also on record: key: Score 0 = no or very limited; Score 1 = medium and; Score 2 = high. The settings on record: oil as C2 microdroplet phase mixed with C1, 37° C.; for Spont. Act. (amount of spontaneously activated bubbles): bubbles >~15 μm; for US Act. (amount of US activated bubbles): insonated 5 s, nominal MI 0.8, 2.25 MHz. The procedure:
641 mg distearoylphosphateidylcholine (DSPC) and 73 mg 1,2-distearoyl-3-(trimethylammonio) propane chloride (DSTAP) were weighed into a 250 mL round bottom flask and 50 ml chloroform was added. The sample was heated under hot tap water until a clear solution was obtained. The chloroform was removed by evaporation to dryness on a rotary evaporator at 350 mm Hg and 40° C., followed by further drying at 50 mm Hg in desiccator over night. Thereafter, 143 mL water was added and the flask again placed on a rotary evaporator and the lipids were rehydrated by full rotational speed and 80° C. water bath temperature for 25 minutes. The samples were placed in refrigerator over night. The lipid dispersion was transferred to a suitable vial and stored in refrigerator until use.
Emulsions were prepared by transferring aliquots of 1 mL of the cold lipid dispersion to 2 mL chromatography vials. To each of seven vials was added 100 μL of the fluorocarbon oils as detailed in Table 11. The chromatography vials were shaken on a CapMix (Espe, GmbH) for 75 seconds. The vials were immediately cooled in ice, pooled and kept cold until use. Coulter counter analysis was performed to determine the volume concentration of the microdroplets and the emulsions were then diluted with water to 10 μl/mL disperse phase.
C1 (as detailed in E1-2) was reconstituted in 2 mL of water and mixed together with the C2 samples prepared in a 10 ml tube to a ratio of 10:1 and shaken carefully by hand. The mixture was then diluted with 7 mL water. The samples were evaluated for spontaneously activated and US activated bubbles by microscopy in manual version of the methodology described in E1-4. One mL of this solution was transferred to a microscope cell where the temperature was stabilised to 37° C. after 2 minutes. The cell was set up so that US sonication, using an ATL 3-2 transducer with a center frequency of 2.25 MHZ, could be applied to the sample. At 200× magnification the entire cell area was scanned and the content of large (>˜15 μm), spontaneously activated bubbles was semi quantitatively assessed by visual inspection. For each sample, a score in the range of 0 to 2 was given, where 0 designate “no or very few large phase shift bubbles observed”, 1 designate “medium number of large phase shift bubbles observed” and 2 designate “large number of large phase shift bubbles observed”. The sample was then insonated for 5 s at a nominal MI of 0.8 and the content of large, US activated bubbles were counted and scored in the same manner. The results from this study is detailed in Table 11 together with the physicochemical characteristics of the compounds investigated.

The conditions of data set [2]: cited from earlier work; for vapour pressure (v.p.): at 20° C.; for Log wsol (water solubility): logarithm of Molar solubility.
The nature of data set [3]: physchem. The settings on record: for solubility: organic solvent or mixture; for Miscibility in tCIMe: solvents. The procedure: As a starting-point for the study on drug loading, a theoretical evaluation of solubility of different solutes (drugs and chromophores for optical imaging) in pFMCP and a range of other oil components was performed. This evaluation was performed using a state-of-the-art software for assessment of solvent-solute compatibility; Hansen solubility parameters, HSPiP v.4 (Steven Abbott TCNF Ltd.). The HSPIP analysis calculates three basic properties relating to compatibility between substances; Polarity, Dispersion and Hydrogen binding and a distance in this three dimensional space between e.g. a solvent and a solute; the Hansen distance (Hd). The closer the solvent and solute are in this space, the (relatively) better the solubility of the solute in the solvent. […] The miscibility between the solvent and the solubility of the solutes in one of the solvents were experimentally determined.
In addition, a 1:1:2 mixture of said three solvents loaded with Ptx was explored. […] C2 with a 1:1:1 mixture of these components was manufactured as detailed below.

≈ marks a conversion by molar mass, not a printed value. Read-outs that look alike come from different tables or passages of the source.

As to `C=CC(F)(F)C(F)(F)C(F)(F)C(F)(F)F` [1H, 1H,2H-perfluoro-1-hexene], in data set [1], the “Spont. Act. (amount of spontaneously activated bubbles)” value is reported as 1 and the “US Act. (amount of US activated bubbles)” value worked out at 1. For the same molecule, in data set [2], the “vapour pressure (v.p.)” value is listed as 353.1 torr and the “Log wsol (water solubility)” value was −4.6.
Consider 2,2,3,3,3-Pentafluoropropyl methyl, for which, in data set [1], the “Spont. Act. (amount of spontaneously activated bubbles)” value worked out at 1 and the “US Act. (amount of US activated bubbles)” value is 0. In data set [2], the “vapour pressure (v.p.)” value is listed as 559.6 torr and the “Log wsol (water solubility)” value is −2.0.
dichlorodifluoroethane [dCldFEt]: the “miscibility in pFMCP, dClMe and tClMe” value in data set [3] was “completely miscible”.
Regarding `COc1cccc2c1C(=O)c1c(O)c3c(c(O)c1C2=O)C[C@@](O)(C(=O)CO)C[C@@H]3O[C@H]1C[C@H](N)[C@H](O)[C@H](C)O1` [Doxorubicin], in data set [3] (trichloromethane (tClMe), Solubility in tCIMe, target molecules), the solubility is about 1 mg/mL (≈ 1.84 mM).
As to `ClCCl` [dCIMe, dichloromethane], in data set [3], the “miscibility in pFMCP” value is about 10% and the “Miscibility in tCIMe” value amounted to 100%. Further, the “Log wsol (water solubility)” value in data set [2] (solvents) is reported as −0.8.
Take Perfluorodimethylcyclobutane: in data set [1], the “Spont. Act. (amount of spontaneously activated bubbles)” value was found to be 0 and the “US Act. (amount of US activated bubbles)” value came to 1. For the same molecule, in data set [2], the “vapour pressure (v.p.)” value is on record as 579 torr and the “Log wsol (water solubility)” value is on record as −5.7.
Turning to `FC(F)(F)C1(F)C(F)(F)C(F)(F)C(F)(F)C1(F)F` [pFMCP, perfluoromethyl-cyclopentane], the “Miscibility in tCIMe” value in data set [3] is about 10%. In data set [1], the “Spont. Act. (amount of spontaneously activated bubbles)” value amounted to 0 and the “US Act. (amount of US activated bubbles)” value turned out to be 1.
Regarding `CC(=O)O[C@@]12CO[C@@H]1C[C@H](O)[C@@]1(C)C(=O)[C@H](O)C3=C(C)[C@@H](OC(=O)[C@H](O)[C@@H](NC(=O)OC(C)(C)C)c4ccccc4)C[C@@](O)([C@@H](OC(=O)c4ccccc4)[C@H]21)C3(C)C` [Docetaxel], the solubility in data set [3] (Solubility in tCIMe) was about 20 mg/mL (≈ 24.8 mM).
For the molecule `FC(F)(F)C(F)(F)C(F)(F)C(F)(F)C(F)(F)C(F)(F)C(F)(F)F` [Perfluoroheptane], in data set [1], the “Spont. Act. (amount of spontaneously activated bubbles)” value was 0 and the “US Act. (amount of US activated bubbles)” value amounted to 2.
With `CC(=O)O[C@H]1C(=O)[C@@]2(C)[C@H]([C@H](OC(=O)c3ccccc3)[C@]3(O)C[C@H](OC(=O)[C@H](O)[C@@H](NC(=O)c4ccccc4)c4ccccc4)C(C)=C1C3(C)C)[C@]1(OC(C)=O)CO[C@@H]1C[C@@H]2O` [Paclitaxel], in data set [3], the “solubility in solvent mixture” value is over 50 mg/mL. The solubility in data set [3] (Solubility in tCIMe) was about 350 mg/mL (≈ 410 mM); in data set [3] (solubility in solvent mixture) it was over 25 mg/mL.
Turning to `CCCCCCCCCCCCCCCCCCN1C(=CC=CC=CC=CC2=[N+](CCCCCCCCCCCCCCCCCC)c3ccccc3C2(C)C)C(C)(C)c2ccccc21.[I-]` [DiR], the “solubility in solvent mixture” value in data set [3] (1:1:1 mixture of pFMCP, ClrFPr and pFMCP) is recorded as over 10 mg/mL. The “Solubility in tCIMe” value in data set [3] (target molecules) is given as about 50 mg/mL.
On to `CN(C)C/C=C/C(=O)Nc1cc2c(Nc3ccc(F)c(Cl)c3)ncnc2cc1O[C@H]1CCOC1` [Afatinib], for which the solubility in data set [3] (Solubility in tCIMe) was about 100 mg/mL (≈ 206 mM).
In the case of `FC(C(F)C(F)(F)C(F)(F)F)C(F)(F)F` (stereo not shown) [2H,3H-perfluoropentane], in data set [1], the “Spont. Act. (amount of spontaneously activated bubbles)” value is reported as 1 and the “US Act. (amount of US activated bubbles)” value is 0. In data set [2], the “vapour pressure (v.p.)” value was 431.8 torr and the “Log wsol (water solubility)” value was −3.2.
With `CCS(=O)(=O)Nc1ccc2c(c1)/C(=C(/Nc1ccc(CN3CCCCC3)cc1)c1ccccc1)C(=O)N2` [Hesperadin], the solubility in data set [3] (Solubility in tCIMe) is about 7.5 mg/mL (≈ 14.5 mM).
Regarding chlorotrifluoropropane [CltFPr], in data set [3], the “miscibility in pFMCP, dClMe and tClMe” value is recorded as “completely miscible”; the “Miscibility in tCIMe” value is on record as 100%. Besides, in data set [2] (solvents), the “Log wsol (water solubility)” value is −2.4.
Regarding 1,1,2,3,3,3-Hexafluoropropyl methyl, in data set [1], the “Spont. Act. (amount of spontaneously activated bubbles)” value is reported as 2 and the “US Act. (amount of US activated bubbles)” value turned out to be 0. Moreover, in data set [2], the “vapour pressure (v.p.)” value is on record as 418.8 torr and the “Log wsol (water solubility)” value is −2.5.
As for Methyl-1,1,2,2-tetrafluoroethyl ether, in data set [1], the “Spont. Act. (amount of spontaneously activated bubbles)” value is recorded as 2 and the “US Act. (amount of US activated bubbles)” value was found to be 0. In addition, in data set [2], the “vapour pressure (v.p.)” value is listed as 842.4 torr and the “Log wsol (water solubility)” value is on record as −1.4.
Consider `CCN(CC)c1ccc2nc3c4ccccc4c(=O)cc-3oc2c1` [Nile Red], for which the solubility in data set [3] (Solubility in tCIMe) is about 50 mg/mL (≈ 157 mM); in data set [3] (solubility in solvent mixture) it was over 5 mg/mL.
With `FC(F)(F)C(F)(F)C(F)(F)C(F)(F)C(F)(F)C(F)(F)F` [Perfluorohexane], in data set [1], the “Spont. Act. (amount of spontaneously activated bubbles)” value is reported as 0 and the “US Act. (amount of US activated bubbles)” value turned out to be 1. Further, in data set [2], the “vapour pressure (v.p.)” value is on record as 359.2 torr and the “Log wsol (water solubility)” value is −6.7.
On to `FC(F)C(F)(F)C(F)(F)C(F)(F)C(F)(F)C(F)(F)F` [1H-perfluorohexane], for which, in data set [1], the “Spont. Act. (amount of spontaneously activated bubbles)” value was 1 and the “US Act. (amount of US activated bubbles)” value was found to be 1. In data set [2], the “vapour pressure (v.p.)” value is listed as 238.6 torr and the “Log wsol (water solubility)” value was −5.3.

By solubility is commonly meant the concentration that dissolves in the medium under given conditions.

The record behind these values is patent US12343396B2, “Ultrasound mediated delivery of drugs” (EXACT THERAPEUTICS AS, priority 2013, dated 2025).
